A short description of data set [1]: Relative stability of solid (polymorphic) forms of Compound II. It is filed as physicochemical.
Data set [2] is described as follows: Comparison of calcium salt hydrate forms: dissolution, solubility, exposure. It is filed as physicochemical. The following applies: than the other calcium salt hydrate forms.
Data set [3] deals with subjects with gating mutations. Briefly: Clinical trial: absolute change in SwCl at 12 weeks in subjects with gating mutations on stable ivacaftor treatment; safety and tolerability. The class given is in vivo, human. The following applies: for Absolute change in SwCl at Week 12: LS mean (SE): subjects with gating mutations. As for the experimental part:
In a clinical trial, a comparative study was conducted on absolute changes in SwCl at 12 weeks in subjects with gating mutations where were on stable treatment with ivacaftor.

Where a name gives a salt, the structure may show the parent alone.

As to `CC1(C)C[C@@H]2CCCNc3cccc(n3)S(=O)(=O)NC(=O)c3ccc(-n4ccc(OCCC5C6(CC6)C56CC6)n4)nc3N1C2` [Compound II calcium salt hydrate Form A, (14S)-8-[3-(2-{Dispiro[2.0.2.1]heptan-7-yl}ethoxy)-1H-pyrazol-1-yl]-12,12-dimethyl-2λ6-thia-3,9,11,18,23-pentaazatetracyclo[17.3.1.111,14.05,10]tetracosa-1(22),5,7,9,19(23),20-hexaene-2,2,4-trione], the “Kinetic preference among calcium salt hydrate forms” value in data set [1] was “most kinetically favored calcium salt hydrate form”. Moreover, in data set [2], the Dissolution result is on record as “higher”, the Exposure entry is reported as “higher” and the Solubility entry is on record as “higher”.
For the molecule `CC1(C)C[C@@H]2CCCNc3cccc(n3)S(=O)(=O)NC(=O)c3ccc(-n4ccc(OCCC5C6(CC6)C56CC6)n4)nc3N1C2` [Compound II free Form A, (14S)-8-[3-(2-{Dispiro[2.0.2.1]heptan-7-yl}ethoxy)-1H-pyrazol-1-yl]-12,12-dimethyl-2λ6-thia-3,9,11,18,23-pentaazatetracyclo[17.3.1.111,14.05,10]tetracosa-1(22),5,7,9,19(23),20-hexaene-2,2,4-trione], the Polymorphic form stability entry in data set [1] (water activity ≤0.95 at ambient temperature) was “most stable polymorphic form”.
Take `CC(C)(C)c1cc(C(C)(C)C)c(NC(=O)c2c[nH]c3ccccc3c2=O)cc1O` [Ivacaftor, reference compound]: the “Absolute change in SwCl at Week 12: LS mean (SE)” value in data set [3] (150 mg q12h, N = 11, week 12) is on record as 0.9.
Turning to `CC1(C)C[C@@H]2CCCNc3cccc(n3)S(=O)(=O)NC(=O)c3ccc(-n4ccc(OCCC5C6(CC6)C56CC6)n4)nc3N1C2` [Compound II calcium salt hydrate Form D, (14S)-8-[3-(2-{Dispiro[2.0.2.1]heptan-7-yl}ethoxy)-1H-pyrazol-1-yl]-12,12-dimethyl-2λ6-thia-3,9,11,18,23-pentaazatetracyclo[17.3.1.111,14.05,10]tetracosa-1(22),5,7,9,19(23),20-hexaene-2,2,4-trione], the Polymorphic form stability result in data set [1] (in IPA/water at water activity 0.1-0.95 from ambient temperature to 60° C.) is on record as “most stable polymorphic form”. Also, the “Stability among calcium salt hydrate forms” value in data set [1] (under certain conditions, such as in mixtures of ethanol and water) is on record as “most stable form of calcium salt hydrate”.
For `[2H]C([2H])([2H])C(c1cc(C(C)(C)C)c(NC(=O)c2c[nH]c3ccccc3c2=O)cc1O)(C([2H])([2H])[2H])C([2H])([2H])[2H]` [Compound I, N-(2-(tert-butyl)-5-hydroxy-4-(2-(methyl-d3)propan-2-yl-1,1,1,3,3,3-d6)phenyl)-4-oxo-1,4-dihydroquinoline-3-carboxamide], the Safety and tolerability result in data set [3] (150 mg and 250 mg for 12 weeks) was “generally safe and well tolerated”. The “SwCl compared to ivacaftor baseline” value in data set [3] (150 mg dose, week 12) is recorded as “decrease in SwCl”. Moreover, the “Absolute change in SwCl at Week 12: LS mean difference vs Ivacaftor” value is on record as 2.4 in data set [3] (150 mg qd vs ivacaftor 150 mg q12h, week 12) and −7.3 in data set [3] (250 mg qd vs ivacaftor 150 mg q12h, week 12). Besides, the “Absolute change in SwCl at Week 12: LS mean (SE)” value in data set [3] (150 mg qd, N = 23, week 12) is reported as 3.3; in data set [3] (250 mg qd, N = 24, week 12), −6.5. For the same molecule, the “SwCl at week 12 compared to the ivacaftor baseline” value in data set [3] (250 mg dose) was “improvement in SwCl”.
